Laboratory results from patent US20220054438A1, “KCHIP2 MODULATOR COMPOUNDS AND THEIR USE FOR THE TREATMENT OF CARDIOVASCULAR DISEASES” (CONSEJO SUPERIOR DE INVESTIGACIONES CIENTÍFICAS (CSIC), priority 2018, published 2022).
“Also recorded” adds a separate entry of the source.

Key:
[1] = target: T1, KV4.3+KChIP2+DPP6 channels (Homo sapiens, UniProt Q9NS61); assay: Whole-cell patch-clamp of KV4.3+KChIP2+DPP6 currents in transiently transfected CHO cells; assay type: cell-based
T1 construct: expressed in transfected cells; host or cells: CHO cells (transient transfection)
From the text: (§1) Example 2. Tests of the effects of the compounds on the KV4.3/KChIP2 and KV4.3/KChIP2/DPP6 currents generated after the activation of KV4.3/KChIP2 and KV4.3/KChIP2/DPP6 channels expressed in CHO cells.
(§2) The compounds synthesized according to this invention have been evaluated in vitro in voltage clamp tests in CHO cells transiently transfected with cDNA encoding KV4.3 alone or KV4.3 in the presence of KChIP2 (KV4.3+KChIP2) and DPP6 (KV4.3+KChIP2+DPP6) using the whole-cell configuration of the patch-clamp technique. Some of the compounds activate the current generated by the activation of KV4.3+KChIP2 channels.

KV4.3+KChIP2 channels = target: T2, KV4.3+KChIP2 channels (Homo sapiens, UniProt Q9NS61); assay: Whole-cell patch-clamp of KV4.3+KChIP2 currents in transiently transfected CHO cells; assay type: cell-based
T2 construct: expressed in transfected cells; host or cells: CHO cells (transient transfection)
T2 sequence (Q9NS61 1-270): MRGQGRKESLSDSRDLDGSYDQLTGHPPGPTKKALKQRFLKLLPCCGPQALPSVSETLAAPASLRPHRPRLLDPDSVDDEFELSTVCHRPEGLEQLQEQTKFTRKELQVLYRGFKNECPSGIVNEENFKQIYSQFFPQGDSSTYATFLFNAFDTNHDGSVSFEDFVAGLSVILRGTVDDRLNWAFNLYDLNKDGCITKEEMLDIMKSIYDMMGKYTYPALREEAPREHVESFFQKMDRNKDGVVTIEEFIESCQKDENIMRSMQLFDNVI
T2 sequence (Q9UK17 1-655 partner): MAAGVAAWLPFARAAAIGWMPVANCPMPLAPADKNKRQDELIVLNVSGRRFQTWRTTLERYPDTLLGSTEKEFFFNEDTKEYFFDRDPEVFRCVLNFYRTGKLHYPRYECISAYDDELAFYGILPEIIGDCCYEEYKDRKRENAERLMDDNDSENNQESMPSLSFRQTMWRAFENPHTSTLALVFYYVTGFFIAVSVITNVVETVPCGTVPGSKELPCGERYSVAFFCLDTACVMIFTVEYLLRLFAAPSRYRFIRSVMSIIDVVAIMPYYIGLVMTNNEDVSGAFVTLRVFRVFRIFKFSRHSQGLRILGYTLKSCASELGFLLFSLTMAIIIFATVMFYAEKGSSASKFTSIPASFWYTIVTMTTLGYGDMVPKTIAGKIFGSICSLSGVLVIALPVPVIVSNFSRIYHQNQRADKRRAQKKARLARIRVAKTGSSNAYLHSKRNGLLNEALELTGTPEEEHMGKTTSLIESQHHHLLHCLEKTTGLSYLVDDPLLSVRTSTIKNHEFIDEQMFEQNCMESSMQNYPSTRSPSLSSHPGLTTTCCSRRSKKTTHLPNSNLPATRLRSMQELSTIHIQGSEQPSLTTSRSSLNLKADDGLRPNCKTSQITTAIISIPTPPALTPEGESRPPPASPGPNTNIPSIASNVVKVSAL
From the text: as §1, §2

[2] = system: K+ current in ventricular cardiomyocytes; assay: Perforated patch-clamp of K+ current in mouse ventricular cardiomyocytes; assay type: cell-based, C57BL/6J mice; details: 3 μM perfused for 3-4 minutes, +60 mV
From the text: Example 3. Effects of the Compounds on the K^+ Current Recorded in Mouse Ventricular Cardiomyocytes
The cardiomyocytes were obtained after enzyme dissociation with collagenase.

T1 sequence (P42658 whole entry partner, one chain of several): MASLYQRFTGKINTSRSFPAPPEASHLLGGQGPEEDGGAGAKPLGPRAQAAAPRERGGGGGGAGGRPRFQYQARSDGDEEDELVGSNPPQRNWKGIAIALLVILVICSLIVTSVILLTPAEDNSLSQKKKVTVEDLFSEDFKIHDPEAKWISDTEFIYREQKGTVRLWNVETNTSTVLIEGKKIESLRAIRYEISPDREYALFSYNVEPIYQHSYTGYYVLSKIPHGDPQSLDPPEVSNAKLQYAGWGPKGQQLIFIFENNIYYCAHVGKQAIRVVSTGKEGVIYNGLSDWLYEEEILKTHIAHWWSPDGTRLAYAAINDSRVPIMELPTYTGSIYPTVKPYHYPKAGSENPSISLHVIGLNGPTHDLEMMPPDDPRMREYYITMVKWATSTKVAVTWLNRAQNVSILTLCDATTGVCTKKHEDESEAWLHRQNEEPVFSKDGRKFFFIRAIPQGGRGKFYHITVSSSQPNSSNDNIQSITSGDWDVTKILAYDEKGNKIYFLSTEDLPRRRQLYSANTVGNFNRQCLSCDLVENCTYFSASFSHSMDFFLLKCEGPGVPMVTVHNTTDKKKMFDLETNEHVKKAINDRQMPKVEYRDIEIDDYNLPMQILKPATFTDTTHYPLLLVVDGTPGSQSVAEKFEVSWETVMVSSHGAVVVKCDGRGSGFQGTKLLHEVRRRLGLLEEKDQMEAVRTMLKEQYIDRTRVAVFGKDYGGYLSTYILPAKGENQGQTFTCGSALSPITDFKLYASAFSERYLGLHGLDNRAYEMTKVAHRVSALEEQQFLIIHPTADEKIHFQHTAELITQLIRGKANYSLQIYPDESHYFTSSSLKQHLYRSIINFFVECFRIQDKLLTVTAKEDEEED

O=C(Cc1cccc(Oc2ccccc2)c1)Nc1cc2ccccc2cc1C(=O)O [Compound 22bis, 3-[2-(3-phenoxyphenyl)acetylamino]-2-naphthoic acid]
current activating effect ([1]; 3 μM, FIG. 1B, compared with KV4.3+KChIP2): more pronounced in the presence of the DPP6 subunit | charge-voltage relationship (Q-V) ([1]; 3 μM, FIG. 3): increase in the charge of the KV4.3/KChIP2 and KV4.3/KChIP2/DPP6 current which turned out to be significant at potentials positive than 0 mV; also recorded: greater than in KV4.3/KChIP2 channels | charge, concentration dependence ([1]; FIG. 2B, +60 mV, compared with KV4.3/KChIP2): increase in the charge more pronounced | charge measured as the area under the current record (KV4.3+KChIP2 channels; 3 μM, CHO cells, depolarizing pulses at +60 mV): increases the charge; also recorded: produced an increase in the charge | maximum peak of the current (KV4.3+KChIP2 channels; 3 μM, FIG. 1A, CHO cells): lowers the maximum peak | charge-voltage relationship (Q-V) (KV4.3+KChIP2 channels; 3 μM, FIG. 3): increase in the charge of the KV4.3/KChIP2 and KV4.3/KChIP2/DPP6 current which turned out to be significant at potentials positive than 0 mV | decrease in the peak versus decrease in the charge, concentration dependence (KV4.3+KChIP2 channels; all concentrations tested except 0.01 μM, FIG. 2, +60 mV): decrease in the peak that was significantly greater than that of the charge | decay (inactivation) time constant of the K+ current [2]: without modifying the decay time constant | maximum peak K+ current [2]: significant increase in the maximum peak current
